Test system: P. berghei ANKA strain
Assay: treatment: 3x3 mg/kg and 3x1 mg/kg po divided doses in infected mice
Format: in vivo, Plasmodium berghei
Conditions: for Activity (%) p.o. SSV: percent reduction of parasitemia day 4
Description: Moro NMRI male mice (Fü Albino specific pathogen free) weighing 18±2 g were infected intravenously (i.v.) with 2×10^7 P. berghei ANKA strain-infected erythrocytes from donor mice on day 0 of the experiment. From donor mice with circa 30% parasitemia, heparinized blood was taken and diluted in physiological saline to 10^8 parasitized erythrocytes per ml. An aliquot (0.2 ml) of this suspension was injected i.v. into experimental and control groups of mice. In untreated control mice, parasitemia rose regularly to 40 to 50% by day 3 post-infection and 70 to 80% by day 4 post-infection. The mice died between days 5 and 7 post-infection. Throughout the experiments, mice were kept in groups of three or five animals in Makrolon type II cages in an air-conditioned animal room at 22 to 23° C. A diet with p-aminobenzoic acid (PABA) of 45 mg (NAFAG FUTTER© food N^o 9009 PAB-45) per kg of body weight, and tap water is available ad libitum.
OZ compounds were prepared at an appropriate concentration, either as a solution or a suspension containing SSV (0.5% w/v CMC, 0.5% v/v benzyl alcohol, 0.4% v/v Tween 80, and 0.9% w/v sodium chloride in water). They were administered per os (p.o.) in a total volume of 0.01 ml per gram of mouse. The activity of the compound was determined by a variety of methods outlined in subsequent sections. Survival time was also recorded, and survival to day 30 post-infection was considered to be a cure.
The second experiment consists of administration of divided 3×3 mg/kg and 3×1 mg/kg po doses administered on days 1, 2, and 3 post-infection. On day 4 post-infection, blood smears of all animals were prepared and stained with Giemsa. Parasitemia was determined microscopically, and the difference between the mean value of the control group (taken as 100%) and those of the experimental groups was calculated and expressed as percent reduction. Compounds were administered orally in the SSV vehicle.

[1] = 3 × 1 mg/kg days 1, 2, 3 post-infection
[2] = 3 × 3 mg/kg days 1, 2, 3 post-infection

SMILES	Survival (days) p.o. SSV [1] [days]	Activity (%) p.o. SSV [1] [%]	Survival (days) p.o. SSV [2] [days]	Activity (%) p.o. SSV [2] [%]
O=C(CC1CCC2(CC1)OOC1(O2)C2CC3CC(C2)CC1C3)N1CCC(O)CC1 (stereo not drawn) [compound 297]	6.4	22	9.4	89
NS(=O)(=O)c1ccc(NCC2CCC3(CC2)OOC2(O3)C3CC4CC(C3)CC2C4)cc1 (stereo not drawn) [compound 298]	11	93	16.4	99.99
O=c1ccn(CC2CCC3(CC2)OOC2(O3)C3CC4CC(C3)CC2C4)cc1 (stereo not drawn) [compound 302]	13.4	87	13.4	99.51
Cc1ccc(S(=O)(=O)O)cc1.NCCNC(=O)CC1CCC2(CC1)OOC1(O2)C2CC3CC(C2)CC1C3 (stereo not drawn) [compound 305]	9.6	87	12.2	99.91
CS(=O)(=O)O.O=C(O)CNCC1CCC2(CC1)OOC1(O2)C2CC3CC(C2)CC1C3 (stereo not drawn) [compound 309]	9.4	66	9.2	99
NC1(C(=O)NCC2CCC3(CC2)OOC2(O3)C3CC4CC(C3)CC2C4)CCCC1 (stereo not drawn) [compound 317]	11.4	73	16.8	100
CS(=O)(=O)O.NC(=O)CCNCC1CCC2(CC1)OOC1(O2)C2CC3CC(C2)CC1C3 (stereo not drawn) [compound 319]	13	92	11.2	99.97
NC(=O)c1cn(CC2CCC3(CC2)OOC2(O3)C3CC4CC(C3)CC2C4)cn1 (stereo not drawn) [compound 320]	8.6	50	9.6	96
CS(=O)(=O)O.NCCOc1ccc(C2CCC3(CC2)OOC2(O3)C3CC4CC(C3)CC2C4)cc1 (stereo not drawn) [compound 323]	14.4	66	14.4	99.95

— patent publication US6906205B2, “Spiro and dispiro 1,2,4-trioxolane antimalarials” (Medicines for Malaria Venture MMV, priority 2002, dated 2005)
